Entries after “also recorded” stand apart in the source; their conditions may differ.
Tests used:
Aβ40 aggregates [1] = target: T1, Aβ40 aggregates (Homo sapiens, UniProt P05067); experiment: Apparent binding constant (Kd) by fluorescence titration with aggregated Aβ40 peptide; settings: 10 μM aggregated Aβ40 peptide, PBS, N = 3; read-out: Kd (mean ± SD)
T1 construct: agglomerated Aβ40 peptide (10 μM, 35° C., agglomerated in PBS buffer for 3 days.)
Procedure: Apparent binding constants (Kd) of the nine compounds were measured by using 10 μM aggregated Aβ40 peptide. Fluorescence intensity of respective probes of […], 0.5, 1, […], 5, and 10 μM dissolved in PBS and fluorescence intensity of a mixture with aggregates Aβ peptide were measured. […] Theoretically, a preferable fluorescence probe for Aβ aggregates should have high fluorescence reactivity and binding affinity.

Aβ40 aggregates [2] = target: T1, Aβ40 aggregates; experiment: In vitro fluorescence measurement before and after mixing with agglomerated Aβ40 peptide; type: binding; settings: for λem: emission wavelength; for λem / λex: 10 μM in PBS; for λex: excitation wavelength; for Fold Increase (FAβ/F0): fluorescence emission intensity at λem, 10 μM compound and 10 μM Aβ40 aggregates
[3] = target: T2, intracellular Aβ aggregates of a SHSY5Y neuroblastoma cell (Homo sapiens, UniProt P05067); experiment: Fluorescence imaging of intracellular Aβ aggregates in SHSY5Y cell extract; type: cell-based; settings: for fluorescent staining of extract of Aβ42-added SHSY5Y cells: cell cultured with unlabelled Aβ42, sonicated with SDS, homogenate reacted with 10 μM probe for 10 minutes; for fluorescent staining of extract of SHSY5Y cells grown without Aβ: culture without Aβ42 (negative control tissue)
T2 construct: a cell having unlabelled Aβ42 added thereto was sonicated with SDS; host or cells: exogenous peptide added to the SHSY5Y neuroblastoma cell culture
Procedure: Fluorescence imaging of compound 14 was performed on intracellular Aβ aggregates of a SHSY5Y neuroblastoma cell. In order to measure intracellular uptake and aggregation of Aβ, 1 μM of Aβ42 (FITC-Aβ42) labelled with fluorescein isothiocyanate was added, and SHSY5Y cell was cultivated 3 days and imaged with fluorescence microscope. […] The conventional research reported that, after extracellular soluble Aβ is taken up, Aβ42 aggregates (>200 kDa) having a high molecular weight is formed. In order to determine whether the compound 14 is used as a fluorescence probe component for detecting intracellular Aβ aggregates, a cell having unlabelled Aβ42 added thereto was sonicated with SDS, and the homogenate was reacted with 10 μM of compound 14 for 10 minutes.

[4] = tested on: Aβ aggregates of brain tissues of an AD mouse; experiment: Fluorescence staining of brain sections of transgenic AD mouse (APP/PS1); settings: for staining of Aβ aggregates in brain section of transgenic AD mouse: 15-month aged APP/PS1 mouse brain section; for staining of brain tissue of control group mouse: control group mouse brain section
Procedure: In order to evaluate whether 2-styrylpyridazine-3(2H)-one-based compound 14 can stain beta amyloid aggregates of brain tissues of an AD mouse, compound 14 was tested in a brain section of an 15-month aged transgenic AD mouse (APP/PS 1) model.

T1 sequence (P05067 672-711 limits assumed): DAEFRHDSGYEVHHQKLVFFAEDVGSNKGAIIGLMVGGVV
T2 sequence (P05067 672-713 limits assumed): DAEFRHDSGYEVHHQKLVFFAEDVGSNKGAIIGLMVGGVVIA

Structure (SMILES)	Kd (Aβ40 aggregates [1]) [µM]	λem (Aβ40 aggregates [2]) [nm]	λex (Aβ40 aggregates [2]) [nm]	Fold Increase (FAβ/F0) (Aβ40 aggregates [2])	fluorescent staining of extract of SHSY5Y cells grown without Aβ [3]	fluorescent staining of extract of Aβ42-added SHSY5Y cells [3]	staining of Aβ aggregates in brain section of transgenic AD mouse [4]	staining of brain tissue of control group mouse [4]
COc1cc(/C=C/n2ncc(Cl)c(Cl)c2=O)cc(OC)c1OC [Compound 28]	4.14 ± 1.94	580	390	26.12	–	–	–	–
COC(=O)c1ccc(/C=C/n2ncc(Cl)c(Cl)c2=O)cc1 [Compound 7, (E)-4,5-dichloro-2-(4-methoxycarbonylstyryl)pyridazine-3(2H)-one]	–	488	370	2.07	–	–	–	–
O=c1c(Cl)c(Cl)cnn1/C=C/c1ccc(-c2ccccc2)cc1 [Compound 12, (E)-2-(2-(biphenyl-4-yl)vinyl)-4,5-dichloropyridazine-3(2H)-one]	–	514	380	1.92	–	–	–	–
CN(C)c1ccc(/C=C/n2ncc(Cl)c(Cl)c2=O)cc1 [Compound 14]	1.84	636	430	40.84	did not have fluorescent staining	Fluorescence precipitate was obtained; also recorded: clearly stained	clearly stained	not stained
O=c1c(Cl)c(Cl)cnn1/C=C/c1ccccc1 [Compound 1, trans-4,5-dichloro-2-styrylpyridazine-3(2H)-one]	–	496	350	4.72	–	–	–	–
COc1cc(OC)c(/C=C/n2ncc(Cl)c(Cl)c2=O)c(OC)c1 [Compound 27, (E)-4,5-dichloro-2-(2,4,6-trimethoxystyryl)pyridazine-3(2H)-one]	17.5 ± 2.49	560	430	11.72	–	–	–	–
COc1cccc(OC)c1/C=C/n1ncc(Cl)c(Cl)c1=O [Compound 22, (E)-4,5-dichloro-2-(2,6-dimethoxystyryl)pyridazine-3(2H)-one]	–	545	350	4.53	–	–	–	–
O=c1c(Cl)c(Cl)cnn1/C=C/c1ccc(/C=C/c2ccccc2)cc1 [Compound 13, 4,5-dichloro-2-((E)-4-(E)-styrylstyryl)pyridazine-3(2H)-one]	–	510	380	2.04	–	–	–	–
COc1ccc(/C=C/n2ncc(Cl)c(Cl)c2=O)cc1OC [Compound 23, (E)-4,5-dichloro-2-(3,4-dimethoxystyryl)pyridazine-3(2H)-one]	–	552	350	3.52	–	–	–	–
O=c1c(Cl)c(Cl)cnn1/C=C/c1ccccc1[N+](=O)[O-] [Compound 8, (E)-4,5-dichloro-2-(2-nitrostyryl)pyridazine-3(2H)-one]	–	500	370	4.12	–	–	–	–
COc1ccccc1/C=C/n1ncc(Cl)c(Cl)c1=O [Compound 16, (E)-4,5-dichloro-2-(2-methoxystyryl)pyridazine-3(2H)-one]	–	492	380	8.24	–	–	–	–
Cc1ccc2c(c1)sc(-c1ccc(N(C)C)cc1)[n+]2C.[Cl-] [thio-flavine T, reference compound]	–	–	–	–	did not have fluorescent staining	labelled pattern was identical to a pattern observed by using thio-flavine T	stained	not stained
COc1cc(OC)c(OC)cc1/C=C/n1ncc(Cl)c(Cl)c1=O [Compound 26, (E)-4,5-dichloro-2-(2,4,5-trimethoxystyryl)pyridazine-3(2H)-one]	–	542	350	3.95	–	–	–	–
COc1ccc(/C=C/n2ncc(Cl)c(Cl)c2=O)c(OC)c1 [Compound 20, (E)-4,5-dichloro-2-(2,4-dimethoxystyryl)pyridazine-3(2H)-one]	5.03 ± 3.48	554	400	11.52	–	–	–	–
O=c1c(Cl)c(Cl)cnn1/C=C/c1cccc([N+](=O)[O-])c1 [Compound 9, (E)-4,5-dichloro-2-(3-nitrostyryl)pyridazine-3(2H)-one]	–	485	390	2.12	–	–	–	–
COc1cccc(/C=C/n2ncc(Cl)c(Cl)c2=O)c1 [Compound 17, (E)-4,5-dichloro-2-(3-methoxystyryl)pyridazine-3(2H)-one]	3.48 ± 1.14	492	350	11.13	–	–	–	–
COc1cccc(/C=C/n2ncc(Cl)c(Cl)c2=O)c1OC [Compound 19, (E)-4,5-dichloro-2-(2,3-dimethoxystyryl)pyridazine-3(2H)-one]	8.52 ± 2.48	504	350	15.35	–	–	–	–
COc1ccc(OC)c(/C=C/n2ncc(Cl)c(Cl)c2=O)c1 [Compound 21, (E)-4,5-dichloro-2-(2,5-dimethoxystyryl)pyridazine-3(2H)-one]	–	512	370	3.42	–	–	–	–
COc1ccc(/C=C/n2ncc(Cl)c(Cl)c2=O)c(OC)c1OC [Compound 25, (E)-4,5-dichloro-2-(2,3,4-trimethoxystyryl)pyridazine-3(2H)-one]	4.24 ± 0.98	536	390	26.81	–	–	–	–
COc1cc(/C=C/n2ncc(Cl)c(Cl)c2=O)cc(OC)c1 [Compound 24, (E)-4,5-dichloro-2-(3,5-dimethoxystyryl)pyridazine-3(2H)-one]	–	492	350	5.37	–	–	–	–

Continued, in another order:

Kd (Aβ40 aggregates [1]) [µM]	λem (Aβ40 aggregates [2]) [nm]	λex (Aβ40 aggregates [2]) [nm]	Fold Increase (FAβ/F0) (Aβ40 aggregates [2])	fluorescent staining of extract of SHSY5Y cells grown without Aβ [3]	Structure (SMILES)	fluorescent staining of extract of Aβ42-added SHSY5Y cells [3]	staining of Aβ aggregates in brain section of transgenic AD mouse [4]	staining of brain tissue of control group mouse [4]
–	486	380	2.94	–	N#Cc1ccc(/C=C/n2ncc(Cl)c(Cl)c2=O)cc1 [Compound 6, (E)-2-(4-cyanostyryl)-4,5-dichloropyridazine-3(2H)-one]	–	–	–
–	495	380	3.03	–	O=c1c(Cl)c(Cl)cnn1/C=C/c1ccc(Cl)cc1 [Compound 3, (E)-4,5-dichloro-2-(4-chlorostyryl)pyridazine-3(2H)-one]	–	–	–
2.95 ± 1.15	598	400	12.15	–	Nc1ccc(/C=C/n2ncc(Cl)c(Cl)c2=O)cc1 [Compound 15, (E)-4,5-dichloro-2-(4-aminostyryl)pyridazine-3(2H)-one]	–	–	–
–	492	350	5.93	–	O=c1c(Cl)c(Cl)cnn1/C=C/c1ccc(F)cc1 [Compound 2, (E)-4,5-dichloro-2-(4-fluorostyryl)pyridazine-3(2H)-one]	–	–	–
–	495	370	2.12	–	O=c1c(Cl)c(Cl)cnn1/C=C/c1ccc(Br)cc1 [Compound 4, (E)-2-(4-bromostyryl)-4,5-dichloropyridazine-3(2H)-one]	–	–	–
2.57 ± 0.54	532	400	19.81	–	COc1ccc(/C=C/n2ncc(Cl)c(Cl)c2=O)cc1 [Compound 18, (E)-4,5-dichloro-2-(4-methoxystyryl)pyridazine-3(2H)-one]	–	–	–
–	516	350	2.81	–	Cc1ccc(/C=C/n2ncc(Cl)c(Cl)c2=O)cc1 [Compound 11, (E)-4,5-dichloro-2-(4-methylstyryl)pyridazine-3(2H)-one]	–	–	–
–	498	380	5.26	–	O=c1c(Cl)c(Cl)cnn1/C=C/c1ccc(I)cc1 [Compound 5, (E)-4,5-dichloro-2-(4-Iodostyryl)pyridazine-3(2H)-one]	–	–	–
–	515	390	2.24	–	O=c1c(Cl)c(Cl)cnn1/C=C/c1ccc([N+](=O)[O-])cc1 [Compound 10, (E)-4,5-dichloro-2-(4-nitrostyryl)pyridazine-3(2H)-one]	–	–	–
